The values that follow come from US20230131559A1, “RECOMBINANT PEPTIDES THAT BIND TO A TUMOUR-SPECIFIC ANTIBODY FOR BREAST CANCER AND USE” (Universidade Federal de Uberlândia, priority 2019, published 2023).

Assay [1] deals with FabC4 antibody fragment. In words: ELISA of synthetic peptides for binding to FabC4. The note with it: 2.5 μg/well peptide, FabC4 1 ug, 492 nm. The protocol:
Clones A5, A7, C4 and D6, which were able to discriminate the serum of individuals with BC from BBD and NC by Phage-ELISA, were chemically synthesized by GenScript USA Inc. To increase immunogenicity, the peptides were coupled to BSA. Enzyme immunoassays were conducted to assess the ability of FabC4 antibody to recognize these peptides.
(§1) A microtiter plate was sensitized with 2.5 μg/well of each of the peptides diluted in carbonate/bicarbonate buffer (50 mM pH 9.6) and kept for 16 hours at 4° C. After blocking with PBS1X-BSA3% (1 hour at 37° C.) a single wash with PBS1X preceded the addition of FabC4 (1 ug), incubated for 1 hour at 37° C. After washing with PBS1X, anti-HA antibody which was labeled with peroxidase (Roche Applied Science) diluted 1:5000 in PBS-BSA3% for 1 h at 37° C. was added. After washing with PBS1X, the reaction with the OPD SigmaFast® (Sigma-Aldrich) substrate, interrupted with H2SO4 (2N), was analyzed in a spectrophotometer at a length of 492 nm (TP-Reader ThermoPlate).
A general note: An ELISA detects its analyte on a solid surface through an enzyme-linked reagent.

The test system of assay [2] is serum from 150 patients (BC, BBD, NC). Nature of the assay: ELISA of synthetic peptides against serum of 150 patients (diagnostic ability). It counts as binding, human. The note with it: serum from 150 patients (50 from each study group). The protocol:
as §1
The same conditions were used to analyze the diagnostic capacity of the peptides against the serum of the 150 patients previously described. Again, ANOVA and Mann Whitney tests were used for comparative purposes between groups with the aid of the GraphPad Prism 7.0 (GraphPad Software Inc.—La Jolla, Calif., USA) software. Values of P<0.05 were considered significant.

In the case of “VMPAAKYSLRVL (listed as Homo sapiens) [pC4, chemically synthesized peptide expressed in phage C4]”, the “absorbance, binding to FabC4 by ELISA” value in assay [1] was “highest absorbance”.

With “VTPCSSFSSFLP (listed as Homo sapiens) [pD6, chemically synthesized peptide of clone D6]”, the “reactivity between the samples” value in assay [2] was “differential reactivity between the samples”.
